In US11066414B2, “Cot modulators and methods of use thereof” (Gilead Sciences, Inc., priority 2015, dated 2021):
Where two headings read alike, the source gives them in different places.

What was measured:
TNFα = assay: Cot Monocyte TNFα Cell Based Assay
Human Cot = Human Cot (Homo sapiens (Human), UniProt P41279); assay: High Throughput Cot Biochemical Assay; conditions: Cot HTRF (TR-FRET) biochemical assay
[1] = read-out: EC50 TNF, LPS-stimulated human monocytes, TNFα
[2] = Homo sapiens, Monocyte, read-out: EC50 TNF, LPS-stimulated human monocytes, TNFα

Sequence of Human Cot (P41279 30-397): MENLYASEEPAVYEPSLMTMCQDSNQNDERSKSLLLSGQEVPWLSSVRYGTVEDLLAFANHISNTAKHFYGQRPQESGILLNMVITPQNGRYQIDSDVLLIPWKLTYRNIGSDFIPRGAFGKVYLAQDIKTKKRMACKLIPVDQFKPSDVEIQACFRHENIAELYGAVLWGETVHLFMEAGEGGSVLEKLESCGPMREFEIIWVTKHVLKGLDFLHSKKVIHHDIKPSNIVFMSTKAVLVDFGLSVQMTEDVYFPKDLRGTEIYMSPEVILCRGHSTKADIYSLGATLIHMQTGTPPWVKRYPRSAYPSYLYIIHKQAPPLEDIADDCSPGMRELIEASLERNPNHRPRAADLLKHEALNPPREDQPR

Row | EC50 (TNFα; [1]) [µM] | IC50 (Human Cot; read-out: IC50 HTRF) [µM] | EC50 (TNFα; [2]) [µM] | IC50 (Human Cot; IC50 HTRF) [µM] | SMILES
1 | 0.181 | 0.008 |  |  | CC1(C)CC(n2cc([C@@H](Nc3cc(Cl)c4ncc(C#N)c(Nc5ccc(F)c(Cl)c5)c4c3)c3cccnc3)nn2)CC(C)(C)N1 [Example 309]
2 |  |  | 2.34 | 0.04 | CC(C)(C)n1cc([C@@H](Nc2cc(Cl)c3ncc(C#N)c(Nc4ccc(F)c(Cl)c4)c3c2)c2cocn2)nn1 [Example 310, (S)-6-(((1-(tert-butyl)-1H-1,2,3-triazol-4-yl)(oxazol-4-yl)methyl)amino)-8-chloro-4-((3-chloro-4-fluorophenyl)amino)-quinoline-3-carbonitrile]
3 | 0.132 | 0.004 |  |  | CC(C)(C)N1CCC(n2cc([C@@H](Nc3cc(Cl)c4ncc(C#N)c(Nc5ccc(F)c(Cl)c5)c4c3)c3cccnc3Cl)nn2)CC1 [Example 315, (S)-6-(((1-(1-(tert-butyl)piperidin-4-yl)-1H-1,2,3-triazol-4-yl)(2-chloropyridin-3-yl)methyl)arnino)-8-chloro-4-((3-chloro-4-fluorophenyl)amino)quinoline-3-carbonitrile]
4 |  |  | 0.298 | 0.006 | N#Cc1cnc2c(Cl)cc(N[C@@H](c3cscn3)c3cn(Cc4ccccn4)nn3)cc2c1Nc1ccc(F)c(Cl)c1 [Example 316, (S)-8-chloro-4-((3-chloro-4-fluorophenyl)amino)-6-(((1-(pyridin-2-ylmethyl)-1H-1,2,3-triazol-4-yl)(thiazol-4-yl)methyl)amino)quinoline-3-carbonitrile]
5 |  |  | 0.251 | 0.016 | N#Cc1csc([C@H](Nc2cc(Cl)c3ncc(C#N)c(Nc4ccc(F)c(Cl)c4)c3c2)c2cn(Cc3ccccn3)nn2)c1 [Example 317, (R)-8-chloro-4-((3-chloro-4-fluorophenyl)amino)-6-(((4-cyano-thiophen-2-yl)(1-(pyridin-2-ylmethyl)-1H-1,2,3-triazol-4-yl)methyl)-amino)quinoline-3-carbonitrile]
6 | 0.271 | 0.008 |  |  | Cc1nc(Cl)ccc1[C@H](Nc1cc(Cl)c2ncc(C#N)c(Nc3ccc(F)c(Cl)c3)c2c1)c1cn(C2CCN(C(C)(C)C)CC2)nn1 [Example 318]
7 |  |  | 0.165 | 0.005 | N#Cc1cnc2c(Cl)cc(N[C@H](c3cn(C4COC4)nn3)c3cccnc3Cl)cc2c1Nc1ccc(F)c(Cl)c1 [Example 319, (S)-8-chloro-4-((3-chloro-4-fluorophenyl)amino)-6-(((2-chloropyridin-3-yl)(1-(oxetan-3-yl)-1H-1,2,3-triazol-4-yl)methyl)amino)-quinoline-3-carbonitrile]
8 |  |  | 0.212 | 0.01 | Cc1nc(Cl)ccc1[C@H](Nc1cc(Cl)c2ncc(C#N)c(Nc3ccc(F)c(Cl)c3)c2c1)c1cn(C2COC2)nn1 [Example 321, (S)-8-chloro-6-(((6-chloro-2-methyl-pyridin-3-yl)(1-(oxetan-3-yl)-1H-1,2,3-triazol-4-yl)methyl)amino)-4-((3-chloro-4-fluorophenyl)amino)quinoline-3-carbonitrile]
9 |  |  | 0.369 | 0.033 | N#Cc1cnc2c(Cl)cc(N[C@H](c3cn(C4COC4)nn3)c3ccc(Cl)nc3Cl)cc2c1Nc1ccc(F)c(Cl)c1 [Example 322, (S)-8-chloro-4-((3-chloro-4-fluorophenyl)amino)-6-(((2,6-dichloro-pyridin-3-yl)(1-(oxetan-3-yl)-1H-1,2,3-triazol-4-yl)methyl)amino)quinoline-3-carbonitrile]
10 |  |  | 0.65 | 0.02 | CC(C)(C)N1CCC(n2cc([C@@H](Nc3cc(Cl)c4ncc(C#N)c(Nc5ccc(F)c(Cl)c5)c4c3)c3ccc(Cl)nc3Cl)nn2)CC1 [Example 325, (S)-6-(((1-(1-(tert-butyl)piperidin-4-yl)-1H-1,2,3-triazol-4-yl)(2,6-dichloropyridin-3-yl)methyl)amino)-8-chloro-4-((3-chloro-4-fluorophenyl)-amino)quinoline-3-carbonitrile]
11 |  |  | 0.272 | 0.004 | Cc1nc(Cl)ccc1[C@H](Nc1cc(Cl)c2ncc(C#N)c(Nc3ccc(F)c(Cl)c3)c2c1)c1cn(CCO)nn1 [Example 328, (S)-8-chloro-6-(((6-chloro-2-methylpyridin-3-yl)(1-(2-hydroxyethyl)-1H-1,2,3-triazol-4-yl)methyl)amino)-4-((3-chloro-4-fluorophenyl)amino)-quinoline-3-carbonitrile]
12 |  |  | 0.173 | 0.003 | N#Cc1cnc2c(Cl)cc(N[C@H](c3cn(CCO)nn3)c3cccnc3Cl)cc2c1Nc1ccc(F)c(Cl)c1 [Example 331, (S)-8-chloro-4-((3-chloro-4-fluorophenyl)amino)-6-(((2-chloropyridin-3-yl)(1-(2-hydroxy-ethyl)-1H-1,2,3-triazol-4-yl)methyl)amino)quinoline-3-carbonitrile]
13 |  |  | 0.082 | 0.004 | N#Cc1cnc2c(Cl)cc(N[C@@H](c3cccnc3)c3cn(CCN4CCCCC4)nn3)cc2c1Nc1ccc(F)c(Cl)c1 [Example 334, (S)-8-chloro-4-((3-chloro-4-fluorophenyl)amino)-6-(((1-(2-(piperidin-1-yl)ethyl)-1H-1,2,3-triazol-4-yl)(pyridin-3-yl)methyl)-amino)quinoline-3-carbonitrile]
14 |  |  | 0.328 | 0.008 | COCCOCCn1cc([C@@H](Nc2cc(Cl)c3ncc(C#N)c(Nc4ccc(F)c(Cl)c4)c3c2)c2cccnc2)nn1 [Example 340, (S)-8-chloro-4-((3-chloro-4-fluorophenyl)amino)-6-(((1-(2-(2-methoxyethoxy)ethyl)-1H-1,2,3-triazol-4-yl)(pyridin-3-yl)methyl)-amino)quinoline-3-carbonitrile]
15 |  |  | 0.843 | 0.006 | N#Cc1cnc2c(Cl)cc(N[C@@H](c3cccnc3)c3cn(CCOCCO)nn3)cc2c1Nc1ccc(F)c(Cl)c1 [Example 341, (S)-8-chloro-4-((3-chloro-4-fluorophenyl)amino)-6-(((1-(2-(2-hydroxyethoxy)ethyl)-1H-1,2,3-triazol-4-yl)(pyridin-3-yl)methyl)-amino)quinoline-3-carbonitrile]
16 |  |  | 6.09 | 0.038 | Cn1cncc1[C@H](Nc1cc(Cl)c2ncc(C#N)c(Nc3ccc(F)c(Cl)c3)c2c1)c1cn(C2CCN(C(C)(C)C)CC2)nn1 [Example 342, (S)-6-(((1-(1-(tert-butyl)piperidin-4-yl)-1H-1,2,3-triazol-4-yl)(1-methyl-1H-imidazol-5-yl)methyl)amino)-8-chloro-4-((3-chloro-4-fluorophenyl)-amino)quinoline-3-carbonitrile]
17 |  |  | 0.151 | 0.003 | CCN1CCc2c([C@H](Nc3cc(Cl)c4ncc(C#N)c(Nc5ccc(F)c(Cl)c5)c4c3)c3cn(C(C)C)nn3)csc2C1 [Example 344, (S)-8-chloro-4-((3-chloro-4-fluorophenyl)amino)-6-(((6-ethyl-4,5,6,7-tetrahydrothieno[2,3-c]pyridin-3-yl)(1-isopropyl-1H-1,2,3-triazol-4-yl)methyl)amino)quinoline-3-carbonitrile]
18 |  |  | 0.073 | 0.003 | CC(C)n1cc([C@@H](Nc2cc(Cl)c3ncc(C#N)c(Nc4ccc(F)c(Cl)c4)c3c2)c2csc3c2CCN(C)C3)nn1 [Example 345, (S)-8-chloro-4-((3-chloro-4-fluorophenyl)amino)-6-(((1-isopropyl-1H-1,2,3-triazol-4-yl)(6-methyl-4,5,6,7-tetrahydrothieno[2,3-c]pyridin-3-yl)methyl)amino)quinoline-3-carbonitrile]
19 |  |  | 0.208 | 0.003 | CC(C)n1cc([C@@H](Nc2cc(Cl)c3ncc(C#N)c(Nc4ccc(F)c(Cl)c4)c3c2)c2csc3c2CCNC3)nn1 [Example 346, (S)-8-chloro-4-((3-chloro-4-fluorophenyl)amino)-6-(((1-isopropyl-1H-1,2,3-triazol-4-yl)(4,5,6,7-tetrahydrothieno[2,3-c]pyridin-3-yl)methyl)amino)quinoline-3-carbonitrile]
20 |  |  | 0.278 | 0.004 | CC(C)(C)N1CCC(n2cc([C@@H](Nc3cc(Cl)c4ncc(C#N)c(Nc5ccc(F)c(Cl)c5)c4c3)c3ccc(F)nc3)nn2)CC1 [Example 347, (S)-6-(((1-(1-(tert-butyl)piperidin-4-yl)-1H-1,2,3-triazol-4-yl)(6-fluoropyridin-3-yl)methyl)amino)-8-chloro-4-((3-chloro-4-fluorophenyl)amino)quinoline-3-carbonitrile]
21 |  |  | 0.718 | 0.041 | CC(C)(C)N1CCC(n2cc([C@@H](Nc3cc(Cl)c4ncc(C#N)c(Nc5ccc(F)c(Cl)c5)c4c3)c3csc4ccc(Cl)cc34)nn2)CC1 [Example 349, (S)-6-(((1-(1-(tert-butyl)piperidin-4-yl)-1H-1,2,3-triazol-4-yl)(5-chlorobenzo[b]-thiophen-3-yl)methyl)amino)-8-chloro-4-((3-chloro-4-fluorophenyl)amino)quinoline-3-carbonitrile]
22 |  |  | 4.51 | 0.026 | CC(C)(C)N1CCC(n2cc([C@@H](Nc3cc(Cl)c4ncc(C#N)c(Nc5ccc(Cl)c(Cl)c5)c4c3)c3cscn3)nn2)CC1 [Example 350, (S)-6-(((1-(1-(tert-butyl)piperidin-4-yl)-1H-1,2,3-triazol-4-yl)(thiazol-4-yl)methyl)amino)-8-chloro-4-((3,4-dichlorophenyl)amino)quinoline-3-carbonitrile]
23 |  |  | 0.744 | 0.01 | CC(C)(C)N1CCC(n2cc([C@@H](Nc3cc(Cl)c4ncc(C#N)c(Nc5ccc(F)c(Cl)c5)c4c3)c3csc4ccccc34)nn2)CC1 [Example 351, (S)-6-((benzo[b]thiophen-3-yl(1-(1-(tert-butyl)piperidin-4-yl)-1H-1,2,3-triazol-4-yl)methyl)amino)-8-chloro-4-((3-chloro-4-fluorophenyl)amino)-quinoline-3-carbonitrile]

Row | SMILES | EC50 (TNFα; [1]) [µM] | IC50 (Human Cot; read-out: IC50 HTRF) [µM] | EC50 (TNFα; [2]) [µM] | IC50 (Human Cot; IC50 HTRF) [µM]
24 | N#Cc1cnc2c(Cl)cc(N[C@@H](c3cccnc3)c3cn(CCN4CCOCC4)nn3)cc2c1Nc1ccc(F)c(Cl)c1 [Example 335, (S)-8-chloro-4-((3-chloro-4-fluorophenyl)amino)-6-(((1-(2-morpholinoethyl)-1H-1,2,3-triazol-4-yl)(pyridin-3-yl)methyl)amino)-quinoiine-3-carbonitrile] | 0.405 | 0.01 |  | 
